In brackets after ≈: the same amount, converted by molar mass. Blank lines part the entries; values can stand above or below the molecule they belong to.
Columns and labels:
Escherichia coli [1] = assay: Antibacterial activity against Escherichia coli MB4926 assessed as bacterial growth inhibition; format: functional
Escherichia coli [2] = assay: Antibacterial activity against Escherichia coli MB5500 assessed as bacterial growth inhibition; format: functional
Escherichia coli [3] = assay: Antibacterial activity against wild type Escherichia coli W3110 assessed as bacterial growth inhibition measured after 22 hrs by MTT assay; format: functional
Escherichia coli [4] = assay: Antibacterial activity against Escherichia coli D21 assessed as bacterial growth inhibition measured after 20 hrs by checkerboard method; format: functional
[5] = biological target: T1, UDP-3-O-acyl-N-acetylglucosamine deacetylase (Escherichia coli K-12, UniProt P0A725); assay: Inhibition of Escherichia coli LpxC assessed as inhibition constant measured after 30 mins by fluorescence based microplate assay
T1 sequence (P0A725 whole entry): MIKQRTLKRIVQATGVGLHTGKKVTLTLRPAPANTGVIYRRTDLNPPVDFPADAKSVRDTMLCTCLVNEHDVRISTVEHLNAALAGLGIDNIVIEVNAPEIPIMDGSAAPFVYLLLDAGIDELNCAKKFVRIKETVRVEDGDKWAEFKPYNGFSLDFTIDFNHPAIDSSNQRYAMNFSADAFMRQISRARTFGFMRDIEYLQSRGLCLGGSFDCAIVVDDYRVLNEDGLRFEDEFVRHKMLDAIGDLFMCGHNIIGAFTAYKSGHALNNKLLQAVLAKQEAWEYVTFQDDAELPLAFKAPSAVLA

[6] = biological target: T2, UDP-3-O-acyl-N-acetylglucosamine deacetylase (Pseudomonas aeruginosa, UniProt B5ATN6); assay: Inhibition of recombinant Pseudomonas aeruginosa LpxC expressed in Escherichia coli
T2 sequence (B5ATN6 whole entry): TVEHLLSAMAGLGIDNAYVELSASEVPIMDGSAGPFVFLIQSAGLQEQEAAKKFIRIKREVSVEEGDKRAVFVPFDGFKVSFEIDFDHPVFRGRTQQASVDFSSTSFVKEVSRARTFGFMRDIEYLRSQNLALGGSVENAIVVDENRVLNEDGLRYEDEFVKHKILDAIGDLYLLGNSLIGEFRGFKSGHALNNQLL

Pseudomonas aeruginosa [7] = assay: Antibacterial activity against Pseudomonas aeruginosa clinical isolate assessed as bacterial growth inhibition by microdilution assay; format: functional
Klebsiella pneumoniae = assay: Antibacterial activity against Klebsiella pneumoniae assessed as bacterial growth inhibition two-fold microdilution; format: functional
Escherichia coli [8] = assay: Antibacterial activity against Escherichia coli assessed as bacterial growth inhibition two-fold microdilution; format: functional
[9] = biological target: T1, UDP-3-O-acyl-N-acetylglucosamine deacetylase; assay: Inhibition of Escherichia coli LpxC
Pseudomonas aeruginosa [10] = assay: Antibacterial activity against Pseudomonas aeruginosa CMCC 10104 assessed as bacterial growth inhibition measured after 22 hrs; format: functional
Pseudomonas aeruginosa [11] = assay: Antibacterial activity against Pseudomonas aeruginosa CMCC 27853 assessed as bacterial growth inhibition measured after 22 hrs; format: functional
Escherichia coli [12] = assay: Antibacterial activity against Escherichia coli CMCC 25922 assessed as bacterial growth inhibition measured after 22 hrs; format: functional
Escherichia coli [13] = assay: Antibacterial activity against Escherichia coli CMCC 44568 assessed as bacterial growth inhibition measured after 22 hrs; format: functional
Pseudomonas aeruginosa [14] = assay: Antibacterial activity against Pseudomonas aeruginosa PA14 assessed as bacterial growth inhibition measured after 18 hrs by broth microdilution assay; format: functional
Escherichia coli [15] = assay: Antibacterial activity against Escherichia coli DH5alpha assessed as bacterial growth inhibition measured after 18 hrs by broth microdilution assay; format: functional
Pseudomonas aeruginosa [16] = assay: Antibacterial activity against Pseudomonas aeruginosa PAO1 assessed as bacterial growth inhibition measured after 18 hrs by broth microdilution assay; format: functional
Pseudomonas aeruginosa [17] = assay: Antibacterial activity against Pseudomonas aeruginosa HER 1018 assessed as bacterial growth inhibition by twofold dilution method; format: functional
[18] = biological target: T3, UDP-3-O-acyl-N-acetylglucosamine deacetylase (Aquifex aeolicus (strain VF5), UniProt O67648); assay: Inhibition of Aquifex aeolicus LpxC transformed in Escherichia coli BL21(DE3) pLysS cells
T3 sequence (O67648 whole entry): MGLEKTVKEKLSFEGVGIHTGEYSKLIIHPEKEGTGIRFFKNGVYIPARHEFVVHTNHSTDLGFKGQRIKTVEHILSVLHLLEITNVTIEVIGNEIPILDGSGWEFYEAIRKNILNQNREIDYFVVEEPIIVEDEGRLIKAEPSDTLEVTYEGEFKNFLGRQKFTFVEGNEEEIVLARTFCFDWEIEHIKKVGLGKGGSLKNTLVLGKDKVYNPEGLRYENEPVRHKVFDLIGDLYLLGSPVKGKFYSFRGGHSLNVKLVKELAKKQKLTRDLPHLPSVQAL

Structure (SMILES): O=C(NO)[C@@H](Cc1ccc2ccccc2c1)NS(=O)(=O)c1ccc2ccccc2c1
MIC (Escherichia coli [4]): 2 µg/mL

Structure (SMILES): O=c1ccn([C@@H]2O[C@H](CO/N=C/c3ccc(O)c(O)c3O)[C@@H](O)[C@H]2O)c(=O)[nH]1
IC50 [9]: 27 µM

Structure (SMILES): COC1([C@H](NC(=O)c2ccc(C#CC#CCCO)cc2)C(=O)NO)CS(=O)(=O)C1
MIC (Pseudomonas aeruginosa [7]): 2.3 µg/mL

Structure (SMILES): CC(C)(N)[C@H](NC(=O)c1ccc(C#CC#C[C@@H](O)CO)cc1)C(=O)NO
IC50 [6]: 0.012 µM
MIC (Pseudomonas aeruginosa [7]): 8.8 µg/mL

Structure (SMILES): N=C(N)N/N=C/c1ccc(C#CC#Cc2ccccc2Cl)cc1
MIC (Pseudomonas aeruginosa [10]): 4 µg/mL (≈ 12.5 µM)
MIC (Pseudomonas aeruginosa [11]): > 128 µg/mL
MIC (Escherichia coli [12]): 8 µg/mL (≈ 24.9 µM)
MIC (Escherichia coli [13]): 64 µg/mL (≈ 200 µM)

Structure (SMILES): O=C(CO/N=C/c1ccc(O)c(O)c1O)NC[C@H]1O[C@@H](n2ccc(=O)[nH]c2=O)[C@H](O)[C@@H]1O
IC50 [9]: 120 µM

Structure (SMILES): CCCCCC(=O)O[C@@H]1[C@@H](CP(C)(=O)O)CO[C@H](CO)[C@H]1O
IC50 [18]: 0.192 µM

Further lines, results first:

MIC (Escherichia coli [1]): 1 µg/mL (≈ 3.24 µM)
MIC (Escherichia coli [2]): 1 µg/mL (≈ 3.24 µM)
Structure (SMILES): CCCc1cc(C2=N[C@@H](C(=O)NO)CO2)cc(OC)c1OC

MIC (Escherichia coli [3]): 0.05 µg/mL (≈ 0.138 µM)
Structure (SMILES): C[C@@H](O)[C@H](NC(=O)c1ccc(C#CC#Cc2ccccc2)cc1)C(=O)NO

Ki [5]: 0.352 µM
Structure (SMILES): O=C(NO)C1(COc2ccc(C#Cc3ccc(CN4CCOCC4)cc3)cc2)CCOCC1

IC50 [6]: 0.00062 µM
MIC (Pseudomonas aeruginosa [7]): 0.16 µg/mL
Structure (SMILES): CC(C)(N)[C@H](NC(=O)c1ccc(C#CC#CC2CC2)cc1)C(=O)NO

MIC (Klebsiella pneumoniae): 2 µg/mL (≈ 4.34 µM)
MIC (Escherichia coli [8]): 2 µg/mL (≈ 4.34 µM)
IC50 [9]: 0.101 µM
Structure (SMILES): C[C@H](O)c1nccn1Cc1cc(-c2ccc(C#C[C@@H]3[C@H]4CN(CCCC(=O)O)C[C@@H]34)cc2)on1

MIC (Pseudomonas aeruginosa [10]): 1 µg/mL (≈ 3.37 µM)
MIC (Pseudomonas aeruginosa [11]): > 128 µg/mL
MIC (Escherichia coli [12]): 2 µg/mL (≈ 6.74 µM)
MIC (Escherichia coli [13]): 2 µg/mL (≈ 6.74 µM)
Structure (SMILES): N=C(N)N/N=C/c1ccc(C#Cc2ccc(Cl)cc2)cc1

IC50 [6]: 0.019 µM
MIC (Pseudomonas aeruginosa [7]): 3.5 µg/mL
Structure (SMILES): CC(C)(N)[C@H](NC(=O)c1ccc(C#CC#C[C@H](O)CO)cc1)C(=O)NO

MIC (Escherichia coli [3]): 0.24 µg/mL (≈ 0.613 µM)
Structure (SMILES): C[C@@H](O)[C@](C)(NC(=O)c1ccc(C#CC#Cc2ccc(N)cc2)cc1)C(=O)NO

MIC (Pseudomonas aeruginosa [14]): 10 µg/mL (≈ 31 µM)
MIC (Escherichia coli [15]): 1.25 µM (≈ 0.403 µg/mL)
MIC (Pseudomonas aeruginosa [16]): 1.25 µg/mL (≈ 3.88 µM)
Structure (SMILES): O=C(C[C@@H]1CN(c2ccc(C#Cc3ccccc3)cc2)CO1)NO

MIC (Pseudomonas aeruginosa [17]): 12.5 µg/mL (≈ 35.6 µM)
Structure (SMILES): CS(=O)(=O)[C@](F)(CCc1ccc(-c2ccccc2)cc1)C(=O)NO

Source: ChEMBL document CHEMBL5360564, “Small molecule LpxC inhibitors against gram-negative bacteria: Advances and future perspectives” (Eur J Med Chem, 2023)
